Data published in patent US20070072920A1, “Phenylethylamine analogs and their use for treating glaucoma” (Alcon, Inc., priority 2005, published 2007).
pEC50, pIC50: −log10 of the molar value. Where a name gives a salt, the structure may show the parent alone. Read-outs that look alike come from different tables or passages of the source.

Tests used:
[1] = molecular target: T1, 5-HT2 receptor in A7r5 rat vascular smooth muscle cells (Rattus norvegicus, UniProt P14842); assay: 5-HT2 Functional Assay: Calcium Mobilization (FLIPR); type: cell-based; conditions: for Emax: read-out: Efficacy (Emax %)
T1 construct: endogenous in cells; host or cells: A7r5 rat vascular smooth muscle cells
T1 sequence (P14842 whole entry): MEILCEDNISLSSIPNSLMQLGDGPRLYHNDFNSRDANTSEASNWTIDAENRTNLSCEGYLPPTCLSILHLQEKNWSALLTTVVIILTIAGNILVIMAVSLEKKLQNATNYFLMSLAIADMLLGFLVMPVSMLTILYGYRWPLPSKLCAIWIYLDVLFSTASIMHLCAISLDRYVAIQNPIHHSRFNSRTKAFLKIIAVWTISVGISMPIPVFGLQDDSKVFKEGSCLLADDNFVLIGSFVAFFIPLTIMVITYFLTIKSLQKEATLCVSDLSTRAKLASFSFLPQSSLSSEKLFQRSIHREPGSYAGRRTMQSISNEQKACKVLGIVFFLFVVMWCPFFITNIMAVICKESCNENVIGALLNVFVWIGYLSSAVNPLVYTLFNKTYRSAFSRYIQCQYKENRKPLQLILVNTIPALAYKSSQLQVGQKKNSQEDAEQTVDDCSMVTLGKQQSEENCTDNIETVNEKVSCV
Description: 5-HT2 Functional Assay: Calcium Mobilization
The receptor-mediated mobilization of intracellular calcium ([Ca^2+]i) was studied using the Fluorescence Imaging Plate Reader (FLIPR) instrument. Rat vascular smooth muscle cells, A7r5, were grown in a normal media of DMEM/10% FBS and 10 μg/ml gentamycin. Confluent cell monolayers were trypsinized, pelleted, and re-suspended in normal media. Cells were seeded in a 50 μL volume at a density of 20,000 cells per well in a black wall, 96-well tissue culture plate and grown for 2 days. On the day of the experiment, one vial of FLIPR Calcium Assay Kit dye was re-suspended in 50 ml of a FLIPR buffer consisting of Hank's Balanced Salt Solution (HBSS), 20 mM HEPES, and 2.5 mM probenecid, pH 7.4. Cells were loaded with the calcium-sensitive dye by addition of an equal volume (50 μl) to each well of the 96-well plate and incubated with dye for 1 h at 23° C. Typically, test compounds were stored at […] in 50% DMSO/50% Ethanol solvent. Compounds were diluted 1:50 in 20% DMSO/20% Ethanol. For dose-response experiments, compounds were diluted 1:50 in FLIPR buffer and serially diluted 1:10 to give a 5- or 8-point dose-response curve.
At the beginning of an experimental run, a signal test was performed to check the basal fluorescence signal from the dye-loaded cells and the uniformity of the signal across the plate. The basal fluorescence was adjusted between 8000-12000 counts by modifying the exposure time, the camera F-stop, or the laser power. The instrument settings for a typical assay were as follows: laser power 0.3-0.6 W, camera F-stop F/2, and exposure time 0.4 sec. An aliquot (25 μl) of the test compound was added to the existing 100 μl dye-loaded cells at a dispensing speed of 50 μl/sec. Fluorescence data were collected in real-time at 1.0 sec intervals for the first 60 sec and at 6.0 sec intervals for an additional 120 sec. Responses were measured as peak fluorescence intensity minus basal and where appropriate were expressed as a percentage of a maximum 5-HT-induced response.

[2] = system: lasered (hypertensive) eyes of conscious cynomolgus monkeys; assay: Acute IOP Response in Lasered (Hypertensive) Eyes of Conscious Cynomolgus Monkeys; type: in vivo, cynomolgus monkey; conditions: 300 μg topical; for % IOP change 1 hr: 1 hr after dose; for % IOP change 3 hr: 3 hr after dose; for % IOP change 6 hr: 6 hr after dose
Description: Acute IOP Response in Lasered (Hypertensive) Eyes of Conscious Cynomolgus Monkeys
Intraocular pressure (IOP) can be determined with an Alcon Pneumatonometer after light corneal anesthesia with 0.1% proparacaine. Eyes are washed with saline after each measurement. After a baseline IOP measurement, test compound is instilled in one 30 μL aliquot to the right eyes only of nine cynomolgus monkeys. Vehicle is instilled in the right eyes of six additional animals. Subsequent IOP measurements are taken at 1, 3, and 6 hours.

5-HT2 receptors = 5-HT2 receptors (Rattus norvegicus, UniProt P14842); assay: 5-HT2 Receptor Binding Assay ([125I]DOI competition); design: species or system rat or human; conditions: inhibition of [125I]DOI binding, cerebral cortex homogenates
5-HT2 receptors, sequence (P14842 whole entry): as above
Description: 5-HT2 Receptor Binding Assay
The assay mixture is incubated for 1 hour at 23° C. in polypropylene tubes and the assays terminated by rapid vacuum filtration over Whatman GF/B glass fiber filters previously soaked in 0.3% polyethyleneimine using ice-cold buffer. Test compounds (at different concentrations) are substituted for methiothepin. Filter-bound radioactivity is determined by scintillation spectrometry on a beta counter.

[3] = percentage of maximum 5-HT-induced response, A7r5 cells

In the case of CCOC(=O)Cc1cc(OC)c(C[C@@H](C)N)cc1OC [Example 1, [(R)-4-(2-Amino-propyl)-2,5-dimethoxy-phenyl]-acetic acid ethyl ester hydrochloride], the pEC50 [1] was 5.96 and the Emax [1, 3] was 24%.

Work on COc1cc(C[C@@H](C)N)c(OC)cc1Cc1nc(C)no1 [Example 2, (R)-2-[2,5-Dimethoxy-4-(3-methyl-[1,2,4]oxadiazol-5-ylmethyl)-phenyl]-1-methyl-ethylamine hydrochloride] yielded a pEC50 [1] of 5.97 and an Emax [1, 3] of 23%.

COCCc1cc(OC)c(C[C@@H](C)N)cc1OC.Cl [Example 3, (R)-2-[2,5-Dimethoxy-4-(2-methoxy-ethyl)-phenyl]-1-methyl-ethylamine hydrochloride] was tested, and the “% IOP change 1 hr” value [2] was −5.2%, the “% IOP change 3 hr” value [2] was −16.3% and the “% IOP change 6 hr” value [2] was −21.5%. The pEC50 [1] was 7.11 and the Emax [1, 3] was 53%.

In the case of COc1cc(CC(C)N)c(OC)cc1CCSC.Cl (stereo not shown) [Example 4, 2-[2,5-Dimethoxy-4-(2-methylsulfanyl-ethyl)-phenyl]-1-methyl-ethylamine hydrochloride], the “% IOP change 1 hr” value [2] was −3.5%, the “% IOP change 3 hr” value [2] was −14.8% and the “% IOP change 6 hr” value [2] was −16.1%. For the same compound, the pEC50 [1] was 7.03 and the Emax [1, 3] was 51%.

COc1cc(C[C@@H](C)N)c(OC)cc1CCCSC [Example 5, (R)-2-[2,5-Dimethoxy-4-(3-methylsulfanyl-propyl)-phenyl]-1-methyl-ethylamine hydrochloride] gave a pEC50 [1] of 7.43 and an Emax [1, 3] of 21%.

Work on COCCCc1cc(OC)c(C[C@@H](C)N)cc1OC [Example 6, (R)-2-[2,5-Dimethoxy-4-(3-methoxy-propyl)-phenyl]-1-methyl-ethylamine hydrochloride] yielded a pEC50 [1] of 7.66 and an Emax [1, 3] of 45%.

COCSCCc1cc(OC)c(C[C@@H](C)N)cc1OC [Example 7, (R)-2-[2,5-Dimethoxy-4-(2-methoxymethylsulfanyl-ethyl)-phenyl]-1-methyl-ethylamine hydrochloride] gave a pEC50 [1] of 7.04 and an Emax [1, 3] of 32%.

With COc1cc(C)c(OS(C)(=O)=O)cc1CC(C)N (stereo not shown) [Example 8, Methanesulfonic acid 5-(2-amino-propyl)-4-methoxy-2-methyl-phenyl ester hydrochloride] the pEC50 [1] was 6.05 and the Emax [1, 3] was 30%.

COc1cc(C)c(OC(C)=O)cc1CC(C)N (stereo not shown) [Example 9, Acetic acid 5-(2-Amino-propyl)-4-methoxy-2-methyl-phenyl ester hydrochloride] was tested, and the pEC50 [1] was 5.31 and the Emax [1, 3] was 37%.

Work on COc1cc(C[C@@H](C)N)c(OC)cc1CC1=NCCS1 [Example 10, (R)-2-[4-(4,5-Dihydro-thiazol-2-ylmethyl)-2,5-dimethoxy-phenyl]-1-methyl-ethylamine hydrochloride] yielded a pEC50 [1] of 6.22 and an Emax [1, 3] of 52%.

COc1cc(C[C@@H](C)N)c(OC)cc1CC1CCCO1 (stereo partly drawn) [Example 12, (R)-2-[2,5-Dimethoxy-4-(tetrahydro-furan-2-ylmethyl)-phenyl]-1-methyl-ethylamine hydrochloride] gave a pEC50 [1] of 7.09 and an Emax [1, 3] of 73%.

In the case of COc1cc(C[C@@H](C)N)c(OC)cc1CC1CCCS1 (stereo partly drawn) [Example 13, (R)-2-[2,5-Dimethoxy-4-(tetrahydro-thiophen-2-ylmethyl)-phenyl]-1-methyl-ethylamine hydrochloride], the pEC50 [1] was 6.25 and the Emax [1, 3] was 81%.

Work on COc1cc(CC(C)N)c(OC)cc1CSC (stereo not shown) [Example 14, 2-(2,5-Dimethoxy-4-methylsulfanylmethyl-phenyl)-1-methyl-ethylamine; hydrochloride] yielded a pEC50 [1] of 7.17 and an Emax [1, 3] of 52%.

Compound COc1cc(C[S+](C)[O-])c(OC)cc1CC(C)N (stereo not shown) [Example 15, 2-(4-Methanesulfinylmethyl-2,5-dimethoxy-phenyl)-1-methyl-ethylamine trifluoroacetate] has a pEC50 [1] of 5.12 and an Emax [1, 3] of 37%.

COc1cc(CC(C)N)c(OC)cc1CC[S+](C)[O-] (stereo not shown) [Example 16, 2-[4-(2-Methanesulfinyl-ethyl)-2,5-dimethoxy-phenyl]-1-methyl-ethylamine hydrochloride] gave a pEC50 [1] of 6.06 and an Emax [1, 3] of 40%.

Compound COc1cc(C[C@@H](C)N)c(OC)cc1Cc1ccccc1 [Example 17, (R)-2-(4-Benzyl-2,5-dimethoxy-phenyl)-1-methyl-ethylamine hydrochloride] has a pEC50 [1] of 6.51 and an Emax [1, 3] of 43%.

Compound COc1ccc(Cc2cc(OC)c(C[C@@H](C)N)cc2OC)cc1 [Example 18, (R)-2-[2,5-Dimethoxy-4-(4-methoxy-benzyl)-phenyl]-1-methyl-ethylamine hydrochloride] has a pEC50 [1] of 6.66 and an Emax [1, 3] of 23%.

Compound COc1ccccc1Cc1cc(OC)c(C[C@@H](C)N)cc1OC [Example 19, (R)-2-[2,5-Dimethoxy-4-(2-methoxy-benzyl)-phenyl]-1-methyl-ethylamine hydrochloride] has a pEC50 [1] of 6.18 and an Emax [1, 3] of 22%.

COc1cccc(Cc2cc(OC)c(C[C@@H](C)N)cc2OC)c1 [Example 20, (R)-2-[2,5-Dimethoxy-4-(3-methoxy-benzyl)-phenyl]-1-methyl-ethylamine hydrochloride] showed a pEC50 [1] of 6.59 and an Emax [1, 3] of 53%.

COc1cc(C[C@@H](C)N)c(OC)cc1Cc1ccc(Cl)cc1 [Example 21, (R)-2-[4-(4-Chloro-benzyl)-2,5-dimethoxy-phenyl]-1-methyl-ethylamine hydrochloride] gave a pEC50 [1] of 6.02 and an Emax [1, 3] of 39%.

With “(R)-2-(4-Furan-2-ylmethyl-2,5-dimethoxy-phenyl)-1-methyl-ethylamine hydrochloride [Example 11]” the pEC50 ([1]; intracellular calcium mobilization, A7r5 cells, FLIPR, read-out: EC50) was 6.92, the “Efficacy (Emax %)” value [1, 3] was 55% and the pIC50 (5-HT2 receptors) was 9.44.
